According to patent US8143244B2, “Cyclopropyl fused indolobenzazepine HCV NS5B inhibitors” (Bristol-Myers Squibb Company, priority 2009, dated 2012):

Target: T1, HCV NS5B (Hepatitis C virus genotype 1b, UniProt Q9WMX2)
T1 construct: The protein was expressed with an 18 amino acid C-terminal truncation to enhance the solubility; made in house; host or cells: E. coli BL21(DE3)
Experiment: HCV NS5B RdRp enzyme assay
Assay type: biochemical
Conditions: HCV NS5B RdRp genotype 1b
Protocol: HCV NS5B RdRp cloning, expression, and purification. The cDNA encoding the NS5B protein of HCV, genotype 1b, was cloned into the pET21a expression vector. The protein was expressed with an 18 amino acid C-terminal truncation to enhance the solubility. The E. coli competent cell line BL21(DE3) was used for expression of the protein. Cultures were grown at 37° C. for ˜4 hours until the cultures reached an optical density of 2.0 at 600 nm. The cultures were cooled to 20° C. and induced with 1 mM IPTG. Fresh ampicillin was added to a final concentration of 50 μg/ml and the cells were grown overnight at 20° C.
Cell pellets (3L) were lysed for purification to yield 15-24 mgs of purified NS5B. The lysis buffer consisted of 20 mM Tris-HCl, pH 7.4, 500 mM NaCl, 0.5% triton X-100, 1 mM DTT, 1 mM EDTA, 20% glycerol, 0.5 mg/ml lysozyme, 10 mM MgCl2, 15 ug/ml deoxyribonuclease I, and Complete TM protease inhibitor tablets (Roche). After addition of the lysis buffer, frozen cell pellets were resuspended using a tissue homogenizer. To reduce the viscosity of the sample, aliquots of the lysate were sonicated on ice using a microtip attached to a Branson sonicator. The sonicated lysate was centrifuged at 100,000×g for 1 hr at 4° C. and filtered through a 0.2 μm filter unit (Corning).
The protein was purified using three sequential chromatography steps: Heparin sepharose CL-6B, polyU sepharose 4B, and Hitrap SP sepharose (Pharmacia). The chromatography buffers were identical to the lysis buffer but contained no lysozyme, deoxyribonuclease I, MgCl2 or protease inhibitor and the NaCl concentration of the buffer was adjusted according to the requirements for charging the protein onto the column. Each column was eluted with a NaCl gradient which varied in length from 5-50 column volumes depending on the column type. After the final chromatography step, the resulting purity of the enzyme is >90% based on SDS-PAGE analysis. The enzyme was aliquoted and stored at −80° C.
Standard HCV NS5B RdRp enzyme assay. HCV RdRp genotype 1b assays were run in a final volume of 60 μl in 96 well plates (Costar 3912). The assay buffer is composed of 20 mM Hepes, pH 7.5, 2.5 mM KCl, 2.5 mM MgCl2, 1 mM DTT, 1.6 U RNAse inhibitor (Promega N2515), 0.1 mg/ml BSA (Promega R3961), and 2% glycerol. All compounds were serially diluted (3-fold) in DMSO and diluted further in water such that the final concentration of DMSO in the assay was 2%. HCV RdRp genotype 1b enzyme was used at a final concentration of 28 nM. A polyA template was used at 6 nM, and a biotinylated oligo-dT12 primer was used at 180 nM final concentration. Template was obtained commercially (Amersham 27-4110). Biotinylated primer was prepared by Sigma Genosys. 3H-UTP was used at 0.6 μCi (0.29 μM total UTP). Reactions were initiated by the addition of enzyme, incubated at 30° C. for 60 min, and stopped by adding 25 μl of 50 mM EDTA containing SPA beads (4 μg/μl, Amersham RPNQ 0007). Plates were read on a Packard Top Count NXT after >1 hr incubation at room temperature.
Modified HCV NS5B RdRp enzyme assay. A modified enzyme assay was performed essentially as described for the standard enzyme assay except for the following: The biotinylated oligo dT12 primer was precaptured on streptavidin-coated SPA beads by mixing primer and beads in assay buffer and incubating at room temperature for one hour. Unbound primer was removed after centrifugation. The primer-bound beads were resuspended in 20 mM Hepes buffer, pH 7.5 and used in the assay at final concentrations of 20 nM primer and 0.67 μg/μl beads. Order of addition in the assay: enzyme (14 nM) was added to diluted compound followed by the addition of a mixture of template (0.2 nM), 3H-UTP (0.6 μCi, 0.29 μM), and primer-bound beads, to initiate the reaction; concentrations given are final. Reactions were allowed to proceed for 4 hours at 30° C.
IC50 values for compounds were determined using seven different [I]. […]

T1 sequence (Q9WMX2 2420-2992): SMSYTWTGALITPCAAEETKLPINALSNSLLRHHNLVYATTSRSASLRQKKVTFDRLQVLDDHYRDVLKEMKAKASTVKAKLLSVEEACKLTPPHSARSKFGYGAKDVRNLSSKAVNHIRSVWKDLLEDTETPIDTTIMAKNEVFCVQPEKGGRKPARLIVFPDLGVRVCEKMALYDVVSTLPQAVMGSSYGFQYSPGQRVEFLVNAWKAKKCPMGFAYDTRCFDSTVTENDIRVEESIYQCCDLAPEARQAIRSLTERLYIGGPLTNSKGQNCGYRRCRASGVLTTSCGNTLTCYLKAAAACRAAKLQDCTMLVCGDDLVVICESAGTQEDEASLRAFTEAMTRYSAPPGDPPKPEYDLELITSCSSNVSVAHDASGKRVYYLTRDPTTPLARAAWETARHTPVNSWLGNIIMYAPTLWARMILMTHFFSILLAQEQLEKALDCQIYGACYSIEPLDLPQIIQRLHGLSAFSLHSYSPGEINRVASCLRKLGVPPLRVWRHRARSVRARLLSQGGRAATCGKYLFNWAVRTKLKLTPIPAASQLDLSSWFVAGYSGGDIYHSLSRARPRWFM

Structure (SMILES) | IC50 (Table 1) [nM] | IC50 (Table 2) [nM]
C=C(C)S(=O)(=O)NC(=O)c1ccc2c(C3CCCCC3)c3n(c2c1)C[C@@]1(C(=O)N2CC45COCC4(CN(C)C5)C2)C[C@H]1c1cc(OC)ccc1-3 (stereo partly shown) | 1.9 to 500 | 
COc1ccc2c(c1)[C@@H]1C[C@]1(C(=O)N1CC34CNCC3(CN(C)C4)C1)Cn1c-2c(C2CCCCC2)c2ccc(C(=O)NS(=O)(=O)C(C)C)cc21 (stereo partly shown) | 1.9 to 500 | 
COc1ccc2c(c1)C=C(C(=O)N1CC34CN(C)CC3(CN(C)C4)C1)Cn1c-2c(C2CCCCC2)c2ccc(C(=O)NS(=O)(=O)N(C)C)cc21 (stereo not shown) | 1.9 to 500 | 
COc1ccc2c(c1)C1CC1(C(=O)N1CC34CNCC3(CN(C)C4)C1)Cn1c-2c(C2CCCCC2)c2ccc(C(=O)NS(=O)(=O)N(C)C)cc21 (stereo not shown) | 1.9 to 500 | 
COc1ccc2c(c1)C1CC1(C(=O)N1CC34CN(C)CC3(CN(C)C4)C1)Cn1c-2c(C2CCCCC2)c2ccc(C(=O)NS(=O)(=O)N(C)C)cc21 (stereo not shown) | 1.9 to 500 | 
COc1ccc2c(c1)[C@@H]1C[C@]1(C(=O)N1CC34CN(C)CC3(CN(C)C4)C1)Cn1c-2c(C2CCCCC2)c2ccc(C(=O)NS(=O)(=O)C(C)C)cc21 (stereo partly shown) | 1.9 to 500 | 
COc1ccc2c(c1)[C@@H]1C[C@]1(C(=O)N1CC34CNCC3(COC4)C1)Cn1c-2c(C2CCCCC2)c2ccc(C(=O)NS(=O)(=O)C(C)C)cc21 (stereo partly shown) | 1.9 to 500 | 
COc1ccc2c(c1)[C@@H]1C[C@]1(C(=O)N1CC34COCC3(CN(C)C4)C1)Cn1c-2c(C2CCCCC2)c2ccc(C(=O)NS(=O)(=O)C(C)C)cc21 (stereo partly shown) | 1.9 to 500 | 
COc1ccc2c(c1)C1CC1(C(=O)N1CC34CNCC3(COC4)C1)Cn1c-2c(C2CCCCC2)c2ccc(C(=O)NS(=O)(=O)N(C)C)cc21 (stereo not shown) | 1.9 to 500 | 
COc1ccc2c(c1)C=C(C(=O)N1CC34CNCC3(COC4)C1)Cn1c-2c(C2CCCCC2)c2ccc(C(=O)NS(=O)(=O)N(C)C)cc21 (stereo not shown) | 1.9 to 500 | 
COc1ccc2c(c1)C=C(C(=O)N1CC34CNCC3(COC4)C1)Cn1c-2c(C2CCCCC2)c2ccc(C(=O)NS(=O)(=O)C3CC3)cc21 (stereo not shown) | 1.9 to 500 | 
COc1ccc2c(c1)C=C(C(=O)N1CC34COCC3(CN(C)C4)C1)Cn1c-2c(C2CCCCC2)c2ccc(C(=O)NS(=O)(=O)N(C)C)cc21 (stereo not shown) | 1.9 to 500 | 
COc1ccc2c(c1)C=C(C(=O)N1CC34COCC3(CN(C)C4)C1)Cn1c-2c(C2CCCCC2)c2ccc(C(=O)NS(=O)(=O)C3CC3)cc21 (stereo not shown) | 1.9 to 500 | 
CCN1CC23COCC2(C1)CN(C(=O)[C@]12C[C@H]1c1cc(OC)ccc1-c1c(C4CCCCC4)c4ccc(C(=O)NS(=O)(=O)C(C)C)cc4n1C2)C3 (stereo partly shown) | 1.9 to 500 | 
COc1ccc2c(c1)CC(C(=O)N1CC34CNCC3(COC4)C1)Cn1c-2c(C2CCCCC2)c2ccc(C(=O)NS(=O)(=O)C3CC3)cc21 (stereo not shown) | 1.9 to 500 | 
COc1ccc2c(c1)CC(C(=O)N1CC34CN(C)CC3(CN(C)C4)C1)Cn1c-2c(C2CCCCC2)c2ccc(C(=O)NS(=O)(=O)N(C)C)cc21 (stereo not shown) | 1.9 to 500 | 
COc1ccc2c(c1)C1CC1(C(=O)N1CC34COCC3(CN(C(C)=O)C4)C1)Cn1c-2c(C2CCCCC2)c2ccc(C(=O)NS(=O)(=O)CC(C)C)cc21 (stereo not shown) | 1.9 to 500 | 
COc1ccc2c(c1)CC(C(=O)N1CC34CNCC3(CN(C)C4)C1)Cn1c-2c(C2CCCCC2)c2ccc(C(=O)NS(=O)(=O)C3CC3)cc21 (stereo not shown) | 1.9 to 500 | 
COc1ccc2c(c1)CC(C(=O)N1CC34COCC3(CN(C)C4)C1)Cn1c-2c(C2CCCCC2)c2ccc(C(=O)NS(=O)(=O)C3CC3)cc21 (stereo not shown) | 1.9 to 500 | 
COc1ccc2c(c1)[C@@H]1C[C@]1(C(=O)N1CC34COCC3(C1)CN(C1CC1)C4)Cn1c-2c(C2CCCCC2)c2ccc(C(=O)NS(=O)(=O)C(C)C)cc21 (stereo partly shown) | 2.5 to 500 | 
COc1ccc2c(c1)[C@@H]1C[C@]1(C(=O)N1CC34COCC3(C1)N(C(C)=O)C4)Cn1c-2c(C2CCCCC2)c2ccc(C(=O)NS(=O)(=O)N(C)C)cc21 (stereo partly shown) | 1.9 to 500 | 
COc1ccc2c(c1)C=C(C(=O)N1CC34COCC3(C1)N(C(C)=O)C4)Cn1c-2c(C2CCCCC2)c2ccc(C(=O)NS(=O)(=O)N(C)C)cc21 (stereo not shown) | 1.9 to 500 | 
COc1ccc2c(c1)C1CC1(C(=O)N1CC34CNCC3(CN(C)C4)C1)Cn1c-2c(C2CCCCC2)c2ccc(C(=O)NS(=O)(=O)C3CC3)cc21 (stereo not shown) |  | 7.8
COc1ccc2c(c1)C1CC1(C(=O)N1CC34COCC3(CN(C)C4)C1)Cn1c-2c(C2CCCCC2)c2ccc(C(=O)NS(=O)(=O)N(C)C)cc21 (stereo not shown) [drawing 61] | 1.9 to 500 | 
COc1ccc2c(c1)[C@@H]1C[C@]1(C(=O)N1CC34COCC3(C1)N(C(C)=O)C4)Cn1c-2c(C2CCCCC2)c2ccc(C(=O)NS(=O)(=O)C(C)C)cc21 (stereo partly shown) [drawing 73] | 1.9 to 500 | 
COc1ccc2c(c1)C1CC1(C(=O)N1CC34COCC3(CN(C)C4)C1)Cn1c-2c(C2CCCCC2)c2ccc(C(=O)NS(=O)(=O)N(C)C)cc21 (stereo not shown) [drawing 106] |  | 8.79
COc1ccc2c(c1)[C@@H]1C[C@]1(C(=O)N1CC34COCC3(C1)N(C(C)=O)C4)Cn1c-2c(C2CCCCC2)c2ccc(C(=O)NS(=O)(=O)C(C)C)cc21 (stereo partly shown) [drawing 109] |  | 3.1
COc1ccc2c(c1)[C@@H]1C[C@]1(C(=O)N1CC34COCC3(C1)N(C(C)=O)C4)Cn1c-2c(C2CCCCC2)c2ccc(C(=O)NS(=O)(=O)C(C)C)cc21 (stereo partly shown) [drawing 110] |  | 2.4
